Experimental data taken from publication PMC8279406 (Journal of Medicinal Chemistry, 2021).

Legend:
[1] = tested on: recombinant R8102 HSV-1 strain; assay: Infection neutralization assay, 293T cells, R8102 HSV-1, β-galactosidase readout; type: cell-based; details: increasing concentrations, 1 h prior to infection and 90 min during attachment
From the text: The binding of HSV-1 gH/gL to either αvβ6 or αvβ8 results in the dissociation of gL from the heterodimer, which, in turn, can favor HSV entry into cells.[27] […] R1.302, a nectin1-neutralizing mAb, was used as a positive control. In the first set of experiments, 293T cells, expressing both the αvβ6 and αvβ8 integrins, were alternatively exposed to increasing concentrations of the integrin-binding peptides and R1.302 before and during the infection by the recombinant R8102 HSV-1 strain. This virion carries, indeed, a lacZ reporter gene under the control of the α27 promoter, whose expression analysis allows for readily quantifying the infectivity.[59] […] Remarkably, these preliminary results were in agreement with the known interchangeable and additive roles played by αvβ6 and αvβ8 integrins upon HSV-1 infection.[26]
Figure 3 Inhibition of HSV-1 infection. 293T cells were exposed to increasing concentrations of the indicated peptides for 1 h prior to infection and during virus attachment for another 90 min. Infection was induced using the recombinant R8102 HSV-1 strain and measured after 8 h as β-galactosidase activity, using o-nitrophenyl-D-galactopyranoside (ONPG) as a substrate. The assays were run in triplicate. Bars show standard deviation (SD).
The experiments were performed using 293T cells in 96-well plates with extracellular virions of R8102 at an input multiplicity of infection of 5 PFU/cell. Cells were exposed to increasing concentrations of the peptides for 1 h at 37 °C, and the viral inoculum was added in the presence of peptides for 90 min at 37 °C. After the removal of the inoculum and rinsing with DMEM containing 1% FBS, the cells were incubated without peptides for 8 h. The same protocol was followed for R1.302 mAb that was used as a positive control. The infection was quantified as β-Gal activity using o-nitrophenyl-D-galactopyranoside (ONPG) as a substrate.[86]

[2] = tested on: recombinant K26GFP HSV-1 strain; assay: Infection neutralization assay, transfected J cells, K26GFP HSV-1, EGFP expression; type: cell-based; details: all of the examined J cell samples, 700 μM
From the text: To this aim, we selected the J cells, which are negative for gD receptors and therefore cannot be infected by HSV-1 unless gD cognate receptors (i.e., nectin1) are transgenically expressed. […] In particular, J cells were transfected with low amounts of nectin1 plasmid, plus either αvβ6 or αvβ8 integrin plasmid or both, and then infected with the recombinant K26GFP HSV-1 strain. Indeed, the capsid protein ICP26 of this strain is fused to the green fluorescent protein (GFP),[60] whose cellular expression can be used to measure the viral infection. Thus, the K26GFP entry in J cells after compound treatment was evaluated using fluorescent microscopy (Figure 4A–T), and the enhanced green fluorescent protein (EGFP) expression was quantified using flow cytometry as the mean fluorescence intensity (MFI) of gated cells (Figure 4U). […] In parallel, we also evaluated the HSV infection in J cells expressing nectin1 plus either αvβ6 or αvβ8 alone.
J cells were transfected with a low amount (75 ng of DNA/24 well) of nectin1 alone (A–E), or with the same amount of nectin1 plus αvβ6 integrin (300 ng DNA/24 well) (F–J), or plus αvβ8 integrin (300 ng DNA/24 well) (K–O), or plus both the integrin receptors (P–T). […] The cells were infected with K26GFP. The nonpenetrated virus was inactivated by an acid wash. Infectivity was measured at 16 h after infection as EGFP expression. (A)–(T) panels show the EGFP expression in each sample for a typical experiment. (U) K26GFP infection was quantified as EGFP protein expression in the flow cytometry assay as the mean fluorescence intensity (MFI) of gated cells. Histograms represent the average of triplicates ± SD.
In other experiments, J cells were transfected with low amounts of plasmids encoding nectin1 (75 ng of DNA/24 well), plus or minus plasmids encoding αv + β6 or αv + β8 integrins (300 ng of DNA/24 well) or together by means of Lipofect 2000 (Life Technologies). The total amount of transfected plasmid DNA was made equal (675 ng/24 well) by the addition of Erb-2 plasmid DNA. […] Following infection, the unpenetrated virus was inactivated by means of an acid wash (40 mM citric acid, 10 mM KCl, 135 mM NaCl, pH 3),[87] and the cells were incubated for a further 16 h in the absence of the peptides or antibody. The extent of infection was assessed through EGFP expression.
Cytofluorimetric analyses were performed using an AccuriC6 flow cytometer (Becton Dickinson). A least 10 000 events were acquired for each sample. Microphotography of the inhibition experiment was conducted using a Nikon Eclipse Ni microscope.

[3] = biological target: T1, human αvβ6 integrin (Homo sapiens, UniProt P06756+P18564); assay: LAP(TGF-β1)-αvβ6 competitive solid-phase ELISA binding assay; details: immobilized LAP, soluble integrin
T1 construct: using immobilized ECM protein and soluble integrin; purchased R&D Systems (Biotechne brand) 3817-AV
Protocol: (§1) The affinity and selectivity of the integrin peptide ligands were ascertained according to a modified method previously reported by some of us.[33],[47] The binding was determined in a competitive solid-phase binding assay using extracellular matrix proteins, soluble integrins, and pertinent integrin-specific antibodies in an enzyme-linked immunosorbent assay (ELISA).
A flat-bottom 96-well ELISA plate was coated overnight at 4 °C with 100 μL/well of 0.4 μg/mL LAP previously diluted in carbonate buffer (15 mM Na2CO3, 35 mM NaHCO3, pH 9.6). Afterward, each well was then washed three times with 200 μL of PBS-T buffer (137 mM NaCl, 2.7 mM KCl, 10 mM Na2HPO4, 2 mM KH2PO4, 0.01% Tween 20, pH 7.4) and blocked for 1 h at room temperature with 150 μL/well TSB buffer (20 mM Tris–HCl, 150 mM NaCl, 1 mM CaCl2, 1 mM MgCl2, 1 mM MnCl2, pH 7.5, 1% BSA). Then, each well was washed three times with 200 μL of PBS-T.
Equal volumes (50 μL) of the internal standard (or test compounds) were mixed with 0.5 μg/mL human integrin αvβ6 (50 μL) giving a final dilution series in TSB buffer of 0.00064–10 μM for the inhibitors and 0.25 μg/mL for integrin αvβ6. These solutions (100 μL/well) were added to the flat-bottom ELISA plate and incubated for 1 h at room temperature. The solutions were discarded from the wells, and the plate was washed three times with PBS-T buffer (3 × 200 μL). […] The solutions were discarded from the wells, and the plate was washed three times with PBS-T (3 × 200 μL). The binding assay was developed by adding 50 μL/well of the 3,3′,5,5′-tetramethylbenzidine (TMB) liquid substrate system and incubating for 1 min at room temperature. The reaction was stopped by adding 50 μL/well of 3 M H2SO4. The peroxidase product formation was detected by measuring the absorbance at […] using a plate reader (Tecan SpectraFLUOR plus, Männedorf, Switzerland). Each compound concentration was tested in duplicate, and the resulting inhibition curves were analyzed using OriginPro 7.5G software; the inflection point describes the IC50 value. Each plate contained a linear peptide ([…]) as the internal standard.[63]

[4] = biological target: T2, human αvβ8 integrin (Homo sapiens, UniProt P06756+P26012); assay: LAP(TGF-β1)-αvβ8 competitive solid-phase ELISA binding assay; details: competitive ELISA, immobilized LAP, soluble integrin
T2 construct: purchased R&D Systems (Biotechne brand) 4135-AV
Protocol: as §1
The experimental procedure is as described for the αvβ6 assay, except for the following modifications. The plates were coated, washed, and blocked as described above. Soluble integrin αvβ8 was mixed with an equal volume of serially diluted inhibitors resulting in a final integrin concentration of 0.25 μg/mL and 0.0032–10 μM for the inhibitors. The primary and secondary antibodies are the same as in the integrin αvβ6 assay. Visualization and analysis were performed as described above. Each plate contained a linear peptide ([…]) as the internal standard.[3]

Structure (SMILES) | effect on HSV-1 infection (in words) [1] | effect on HSV entry (in words) [2] | IC50 [3] [nM] | IC50 [4] [nM]
CC(C)[C@H]1C(=O)N[C@@H](CCCNC(=N)N)C(=O)NCC(=O)N[C@@H](CC(=O)O)C(=O)N[C@H](Cc2ccccc2)C(=O)N1C [cilengitide, reference compound] | no alteration in the HSV entry process | no effect | – | –
CN1CC(=O)N[C@@H](CC(=O)O)C(=O)N[C@@H](C2CCCCC2)C(=O)N[C@H](C(N)=O)CCC(=O)N[C@@H](CCCNC(=N)N)C1=O [compound 3, [Arg-(NMe)Gly-Asp-Chg-Glu]-CONH2] | – | – | 211 ± 26 | 3320 ± 122
CN1C(=O)[C@H](CC(=O)O)NC(=O)CNC(=O)[C@H](CCCNC(=N)N)NC(=O)CC[C@@H](C(N)=O)NC(=O)[C@@H]1C1CCCCC1 [compound 5, [Arg-Gly-Asp-(NMe)Chg-Glu]-CONH2] | – | – | > 5000 | > 5000
CN1C(=O)CC[C@@H](C(N)=O)NC(=O)[C@H](C2CCCCC2)NC(=O)[C@H](CC(=O)O)NC(=O)CNC(=O)[C@@H]1CCCNC(=N)N [compound 2, [(NMe)Arg-Gly-Asp-Chg-Glu]-CONH2] | – | – | 105 ± 8 | 2250 ± 89
